From article PMC10035370, “Targeting Tumor Angiogenesis with the Selective VEGFR-3 Inhibitor EVT801 in Combination with Cancer Immunotherapy” (Cancer Research Communications, 2022)

Key:
VEGFR-1 = target: T1, VEGFR-1 (Homo sapiens, UniProt P17948); test: Cellular autophosphorylation assay, HEK293 cells transiently expressing VEGFR-1; type: cell-based
T1 construct: expressed in transfected cells; host or cells: HEK293T
Protocol: Transfection of HEK293T cells and Ba/F3 cells with VEGFR-1-Flag, VEGFR-2-Flag or VEGFR-3-Flag expression constructs was performed using Fugene-6 (Roche) as per manufacturer’s protocol. Briefly, Fugene-6 was pre-incubated with Opti-Mem (Gibco) before adding DNA. After 24 h, media was replaced with serum-free culture media containing 0.2 % BSA. On the next day, cells were incubated for 1 h in 1 mM orthovanadate, harvested, dissociated and distributed at 4 x 10^5 cells in 5 mL for HEK-VEGFR-1 and HEK-VEGFR-3, and 5 x 10^4 cells per 5 mL for HEK VEGFR-2 in the presence of EVT801 or SAR401849. After 30 min, the reaction was stopped by the addition of cold PBS supplemented with 1 mM orthovanadate. Cells were then lysed with 150 μl of RIPA buffer for 15 min at 4°C, then centrifuged for 10 min at 10,000 g. Supernatants (75 μl) were distributed in duplicate on 96 well plates that were precoated with the anti-flag, and left for 1 h at room temperature. After 3 washes, the anti-phosphotyrosine conjugated to the HRP was added and incubated for 1 h at room temperature. Wells were then washed 3 times with TBS buffer containing 0.5 % Tween-20 and 2 mM MgCl2. The reaction was stopped with 50 μL of 2 N H2SO4, and the signal was read with Envision at the wavelengths of 485 nm and 530 nm.

4T1 tumors = test: 4T1 mammary carcinoma mouse model, with anti-CTLA-4; type: in vivo, mice
Protocol: The 4T1 mammary carcinoma mouse models were used as reported previously ([26]). Briefly, 1 × 10^5 4T1 cells were implanted into mammary fat pads of BALB/c mice. […] Tumors were measured two to three times weekly with calipers. The tumor volume (V) was calculated using the formula V = 0.52 × a^2 × b (a: smallest tumor diameter; b: largest tumor diameter). The tumors, lungs, and axillary lymph nodes were removed at day 21 for treatment with anti-PD-1, and day 28 for treatment with anti-CTLA-4. The tumors and the lungs were embedded in paraffin for histology studies. Intraperitoneal injection (10 mg/kg of antibody diluted at 1 mg/mL) was performed at day 6, day 11, and day 16 for treatment with anti-PD-1, and at day 6, day 11, day 16, and day 21 for treatment with anti-CTL-4 by using a 26G needle fitted to a plastic syringe in the right lower quarter of mice abdomen. The metastatic scoring was determined as follows: (0) no metastasis; ([1]) 1 to 20 metastases < 50 μm; ([2]) between 21 and 50 metastases < 50 μm; ([3]) 1 or more metastases > […]; ([4]) 1 or more metastases > […].
Whole blood samples were treated twice with ACK lysing buffer (Thermo Fisher Scientific, A1049201) to lyse red blood cells. Cell suspension were incubated for 15 minutes on ice in blocking buffer (FACS buffer: PBS 1 X, 1% FBS, 5 mmol/L Ethylene Diamine Tetra acetic Acid (EDTA) containing 3% rat serum, 3% mouse serum, 1:660 FC blocking antibody). Cell suspension were stained with an antibody mix either for myeloid-derived suppressor cell (MDSC) staining [anti-CD45 PE-Vio770 (Miltenyi Biotec, 130-110-799), anti-CD11b APC (eBioscience, 17-0112-82), anti-Ly6C AF700 (BD, 561237), anti-Ly6G BV421 (BD, 562737), anti-F4/80 BV510 (BD, 743280), anti-IA/I-E (MHCII), PercpCy5.5 (BD, 562363), anti-CD124 PE (BioLegend, 144804) or anti-rat IgG2bPE (Ozyme, BLE400608) isotype control, and the green fluorescent reactive dye (Thermo Fisher Scientific, L34960)], or for T-cell staining [anti-CD45 PE-Vio770 (Miltenyi Biotec, 130-110-799), anti-Thy1 APC-Cy7 (BioLegend, 105328), anti-CD4 PercpVio-700 (Miltenyi Biotec, 130-109-497), anti-CD8 BV510 (BD, 563068), anti-CD69 BV421 (BD 562920) or anti-rat IgG1a-BV421 (BD, 562919), and the green fluorescent reactive dye (Thermo Fisher Scientific, L34960)]. After incubation for 30 minutes at 4°C in the dark, cells were washed and suspended in FACS buffer. A total of 50 μL of CountBright Absolute counting beads (Thermo Fisher Scientific, C36950) were added just before cell acquisition on a FACS Fortessa X20 (Becton Dickinson). Analysis was performed with the FlowJo software. For calculation of cell concentration, the following formula was used: Concentration of cells/μL = (number of cell events/number of bead events) × (assigned bead count of the lot/volume of analyzed sample). Monocytic MDSCs (M-MDSC) were characterized as MHC-II^neg/CD11b^+/Ly6C^+/Ly6G^neg, whereas polymorphonuclear MDSCs (PMN-MDSC) were characterized as MHC-II^neg/CD11b^+/Ly6C^neg/Ly6G^+, as described previously ([31]). Among those populations, CD124^+ cells were considered as the activated subpopulations ([32]).
Blood was centrifuged at 8,000 rpm, for 5 minutes, at 4°C and the plasma was collected by harvesting the supernatant and stored at −80°C. Plasma samples were thawed at 4°C extemporaneously for MesoScale Discovery (MSD) analysis on a U-PLEX-4 Assay coated plate (U-PLEX Mouse KC, U-PLEX Mouse MIP-1α/CCL3, U-PLEX Mouse MIP-1β/CCL4, U-PLEX Mouse Rantes/CCL5 K15069L-1, Meso Scale Discovery). Analysis was performed following manufacturer's instructions.

[1] = endpoint, 30 mg/kg twice per day

T1 sequence (P17948 27-1338): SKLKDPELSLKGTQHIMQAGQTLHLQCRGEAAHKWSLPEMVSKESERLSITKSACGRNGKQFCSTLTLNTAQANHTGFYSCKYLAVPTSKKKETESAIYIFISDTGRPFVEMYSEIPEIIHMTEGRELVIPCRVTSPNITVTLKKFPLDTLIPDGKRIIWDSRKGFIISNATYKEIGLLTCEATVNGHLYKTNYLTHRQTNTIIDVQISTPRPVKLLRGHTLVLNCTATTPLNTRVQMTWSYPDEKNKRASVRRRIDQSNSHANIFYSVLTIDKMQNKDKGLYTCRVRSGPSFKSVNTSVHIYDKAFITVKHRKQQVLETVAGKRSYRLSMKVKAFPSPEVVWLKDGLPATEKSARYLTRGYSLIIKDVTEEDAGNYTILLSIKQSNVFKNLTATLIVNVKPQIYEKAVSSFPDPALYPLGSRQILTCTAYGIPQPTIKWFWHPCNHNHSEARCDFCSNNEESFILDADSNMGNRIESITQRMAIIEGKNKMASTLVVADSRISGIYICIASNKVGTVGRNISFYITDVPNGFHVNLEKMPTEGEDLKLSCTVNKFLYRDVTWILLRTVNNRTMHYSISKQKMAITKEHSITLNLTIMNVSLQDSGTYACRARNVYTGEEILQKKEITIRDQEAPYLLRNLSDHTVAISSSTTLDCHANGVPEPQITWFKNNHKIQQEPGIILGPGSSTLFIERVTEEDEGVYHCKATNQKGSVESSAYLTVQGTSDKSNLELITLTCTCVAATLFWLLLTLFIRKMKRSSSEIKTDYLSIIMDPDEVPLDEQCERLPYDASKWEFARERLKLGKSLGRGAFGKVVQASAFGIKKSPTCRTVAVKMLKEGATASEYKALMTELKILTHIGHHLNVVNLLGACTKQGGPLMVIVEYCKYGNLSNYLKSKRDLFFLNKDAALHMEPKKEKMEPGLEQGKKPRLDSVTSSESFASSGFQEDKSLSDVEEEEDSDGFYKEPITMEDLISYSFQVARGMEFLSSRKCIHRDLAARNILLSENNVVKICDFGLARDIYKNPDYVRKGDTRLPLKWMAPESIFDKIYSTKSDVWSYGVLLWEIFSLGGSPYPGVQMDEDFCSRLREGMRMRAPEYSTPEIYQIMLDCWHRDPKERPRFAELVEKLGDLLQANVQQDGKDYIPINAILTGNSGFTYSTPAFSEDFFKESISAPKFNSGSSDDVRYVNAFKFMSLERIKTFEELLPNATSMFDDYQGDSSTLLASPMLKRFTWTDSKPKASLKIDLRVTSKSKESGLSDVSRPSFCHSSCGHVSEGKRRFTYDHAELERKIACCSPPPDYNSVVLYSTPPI

CCn1c(N)c(-c2ncc[nH]2)c(=O)c2ccc(C#C[C@@](C)(O)COC)nc21 [EVT801]
maximum inhibition of VEGFR-1 (VEGFR-1; HEK293T cellular autophosphorylation assay): below 50% | IC50 (VEGFR-1; HEK293 cells, read-out: IC50 in cellular assays, VEGFR-1 autophosphorylation): 2.13 µM | reduction in circulation of each activated (CD124+) MDSC subpopulation (PMN-MDSCs, M-MDSCs) in the blood (4T1 tumors; 14 hours after the last dosing): 2 fold | increase in number of circulating CD8+ T cells (4T1 tumors; endpoint): 30% | change in circulating CCL4 levels (4T1 tumors; [1]): −50% | change in circulating CCL5 levels (4T1 tumors; [1]): −30% | circulating CCL3 levels (4T1 tumors; [1]): unchanged | T/C ratio, tumor growth (4T1 tumors; orthotopic, EVT801 30 mg/kg twice per day, anti-CTLA-4 twice per week, or both): 53%
